# Measurements as given in PubChem BioAssay (NCI).
#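 Exposure lasted 48 hours, with cells grown in 96-well plates and compounds tested at five concentrations. The concentration for 50% growth inhibition is given as GI50. The concentration for full growth arrest is given as TGI.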
# Key:
# Test in all cases: inhibition of tumour cell growth, NCI panel, 48 h
# [1] = tested on: SNB-75 CNS
# [2] = tested on: HOP-62 NSCLC
# [3] = tested on: MDA-MB-231 breast
# [4] = tested on: SW-620 colon
# [5] = tested on: OVCAR-8 ovarian
# [6] = tested on: SK-MEL-28 melanoma
# [7] = tested on: DU-145 prostate
# [8] = tested on: UACC-257 melanoma
# [9] = tested on: SNB-19 CNS
# [10] = tested on: KM12 colon
# [11] = tested on: MCF7 breast
# [12] = tested on: MOLT-4 leukemia
# [13] = tested on: PC-3 prostate
# [14] = tested on: LOX IMVI melanoma
# [15] = tested on: SF-539 CNS
# [16] = tested on: M14 melanoma
# [17] = tested on: HOP-92 NSCLC
# [18] = tested on: K-562 leukemia
# [19] = tested on: ACHN renal
# [20] = tested on: COLO 205 colon
# [21] = tested on: BT-549 breast
# [22] = tested on: SR leukemia
# [23] = tested on: SK-OV-3 ovarian
# [24] = tested on: HT29 colon
# [25] = tested on: HL-60(TB) leukemia
# [26] = tested on: U251 CNS
# [27] = tested on: IGROV1 ovarian
# [28] = tested on: SF-295 CNS
# [29] = tested on: UO-31 renal
# [30] = tested on: NCI/ADR-RES ovarian
# [31] = tested on: SK-MEL-5 melanoma
# [32] = tested on: SK-MEL-2 melanoma
# [33] = tested on: OVCAR-3 ovarian
# [34] = tested on: RPMI-8226 leukemia
# [35] = tested on: MDA-MB-435
# [36] = tested on: NCI-H23 lung
# [37] = tested on: SN12C renal
# [38] = tested on: SF-268 CNS
# [39] = tested on: NCI-H460 lung
# [40] = tested on: CCRF-CEM leukemia
# [41] = tested on: HS 578T breast
# [42] = tested on: OVCAR-5 ovarian
# [43] = tested on: 786-0 renal
# [44] = tested on: A549 NSCLC
# [45] = tested on: UACC-62 melanoma
# [46] = tested on: HCT-116 colon
# [47] = tested on: CAKI-1 renal
# [48] = tested on: HCT-15 colon
# [49] = tested on: OVCAR-4 ovarian
# [50] = tested on: NCI-H226 lung
# [51] = tested on: A498 renal
# [52] = tested on: RXF 393 renal
# [53] = tested on: EKVX NSCLC
# [54] = tested on: HCC-2998 colon
# [55] = tested on: NCI-H522 lung
# [56] = tested on: TK-10 renal
compound,measurement,setting,value
COc1ccc(-c2nc3ncccn3c2-c2ccc(S(C)(=O)=O)cc2)cc1,TGI,[1],> 100 µM
same,TGI,[2],> 100 µM
same,TGI,[3],> 100 µM
same,TGI,[4],> 100 µM
same,TGI,[5],> 100 µM
same,TGI,[6],> 100 µM
same,TGI,[7],> 100 µM
same,TGI,[8],> 100 µM
same,TGI,[9],> 100 µM
same,TGI,[10],> 100 µM
same,TGI,[11],81.8 µM
same,TGI,[12],> 100 µM
same,TGI,[13],> 100 µM
same,TGI,[14],> 100 µM
same,TGI,[15],> 100 µM
same,TGI,[16],> 100 µM
same,TGI,[17],> 100 µM
same,TGI,[18],> 100 µM
same,TGI,[19],> 100 µM
same,TGI,[20],> 100 µM
same,TGI,[21],> 100 µM
same,TGI,[22],> 100 µM
same,TGI,[23],> 100 µM
same,TGI,[24],> 100 µM
same,TGI,[25],> 100 µM
same,TGI,[26],> 100 µM
same,TGI,[27],> 100 µM
same,TGI,[28],> 100 µM
same,TGI,[29],> 100 µM
same,TGI,[30],> 100 µM
same,TGI,[31],> 100 µM
same,TGI,[32],> 100 µM
same,TGI,[33],> 100 µM
same,TGI,[34],> 100 µM
same,TGI,[35],> 100 µM
same,TGI,[36],> 100 µM
same,TGI,[37],> 100 µM
same,TGI,[38],> 100 µM
same,TGI,[39],> 100 µM
same,TGI,[40],> 100 µM
same,TGI,[41],> 100 µM
same,TGI,[42],> 100 µM
same,TGI,[43],> 100 µM
same,TGI,[44],> 100 µM
same,TGI,[45],> 100 µM
same,TGI,[46],> 100 µM
same,TGI,[47],68.7 µM
same,TGI,[48],> 100 µM
same,TGI,[49],> 100 µM
O=C(/C=C(/C=C/c1csc2ccccc12)OB(F)F)/C=C/c1csc2ccccc12,GI50,[1],2.79 µM
same,TGI,[1],> 50 µM
same,GI50,[50],> 50 µM
same,TGI,[50],> 50 µM
same,GI50,[2],> 50 µM
same,TGI,[2],> 50 µM
same,GI50,[9],3.62 µM
same,TGI,[9],> 50 µM
same,GI50,[11],1.06 µM
same,TGI,[11],> 50 µM
same,GI50,[22],0.23 µM
same,TGI,[22],> 50 µM
same,GI50,[23],> 50 µM
same,TGI,[23],> 50 µM
same,GI50,[51],> 50 µM
same,TGI,[51],> 50 µM
same,GI50,[28],> 26.2 µM
same,TGI,[28],> 50 µM
same,GI50,[39],> 50 µM
same,TGI,[39],> 50 µM
same,GI50,[40],0.244 µM
same,TGI,[40],> 50 µM
same,GI50,[41],2.06 µM
same,TGI,[41],> 50 µM
same,GI50,[44],> 50 µM
same,TGI,[44],> 50 µM
C=C1C(=O)O[C@H]2[C@H]1CC/C(COC(=O)c1ccc(Br)cc1)=C\CC[C@@]1(C)O[C@@H]21,GI50,[1],1.16 µM
same,TGI,[1],2.41 µM
same,GI50,[50],2.06 µM
same,TGI,[50],4.57 µM
same,GI50,[3],1.73 µM
same,TGI,[3],3.51 µM
same,GI50,[4],1.08 µM
same,TGI,[4],2.87 µM
same,GI50,[5],1.87 µM
same,TGI,[5],5 µM
same,GI50,[52],1.46 µM
same,TGI,[52],2.84 µM
same,GI50,[53],1.76 µM
same,TGI,[53],4.05 µM
same,GI50,[6],1.7 µM
same,TGI,[6],3.39 µM
same,GI50,[7],1.35 µM
same,TGI,[7],2.65 µM
same,GI50,[8],1.65 µM
same,TGI,[8],3.35 µM
same,GI50,[9],1.85 µM
same,TGI,[9],4.08 µM
same,GI50,[10],1.8 µM
same,TGI,[10],3.66 µM
same,GI50,[54],2.05 µM
same,TGI,[54],4.27 µM
same,GI50,[11],0.645 µM
same,TGI,[11],2.97 µM
same,GI50,[12],1.17 µM
same,TGI,[12],6.06 µM
same,GI50,[13],1.69 µM
same,TGI,[13],3.19 µM
same,GI50,[14],0.797 µM
same,TGI,[14],2.19 µM
same,GI50,[15],1.5 µM
same,TGI,[15],2.88 µM
same,GI50,[16],1.47 µM
same,TGI,[16],3.2 µM
same,GI50,[17],1.72 µM
same,TGI,[17],3.29 µM
same,GI50,[55],1.33 µM
same,TGI,[55],2.8 µM
same,GI50,[18],1.2 µM
same,TGI,[18],10.3 µM
same,GI50,[19],1.45 µM
same,TGI,[19],2.76 µM
same,GI50,[20],1.79 µM
same,TGI,[20],3.51 µM
same,GI50,[21],1.3 µM
same,TGI,[21],3.01 µM
same,GI50,[22],0.343 µM
same,TGI,[22],4.75 µM
same,GI50,[23],14.8 µM
same,TGI,[23],28.1 µM
same,GI50,[24],1.13 µM
same,TGI,[24],3.43 µM
same,GI50,[51],11 µM
same,TGI,[51],23.7 µM
same,GI50,[25],0.664 µM
same,TGI,[25],3.37 µM
same,GI50,[26],1.55 µM
same,TGI,[26],2.98 µM
same,GI50,[27],1.27 µM
same,TGI,[27],2.83 µM
same,GI50,[28],1.67 µM
same,TGI,[28],3.57 µM
same,GI50,[29],1.29 µM
same,TGI,[29],2.56 µM
same,GI50,[30],2.34 µM
same,TGI,[30],8.68 µM
same,GI50,[31],1.81 µM
same,TGI,[31],3.28 µM
same,GI50,[32],1.64 µM
same,TGI,[32],3.06 µM
same,GI50,[33],1.02 µM
same,TGI,[33],2.24 µM
same,GI50,[34],0.543 µM
same,TGI,[34],3.85 µM
same,GI50,[35],1.79 µM
same,TGI,[35],3.5 µM
same,GI50,[36],1.6 µM
same,TGI,[36],3.41 µM
same,GI50,[37],1.63 µM
same,TGI,[37],3.69 µM
same,GI50,[38],1.55 µM
same,TGI,[38],3.14 µM
same,GI50,[39],1.99 µM
same,TGI,[39],4.3 µM
same,GI50,[40],0.393 µM
same,TGI,[40],7.76 µM
same,GI50,[41],2.51 µM
same,TGI,[41],7.64 µM
same,GI50,[42],1.68 µM
same,TGI,[42],3.62 µM
same,GI50,[43],1.62 µM
same,TGI,[43],3.09 µM
same,GI50,[44],1.96 µM
same,TGI,[44],4.56 µM
same,GI50,[45],1.48 µM
same,TGI,[45],2.94 µM
same,GI50,[46],0.415 µM
same,TGI,[46],1.58 µM
same,GI50,[56],1.9 µM
same,TGI,[56],3.33 µM
same,GI50,[48],1.1 µM
same,TGI,[48],3.06 µM
same,GI50,[49],1.57 µM
same,TGI,[49],3.68 µM
